Assay results taken from patent publication US10513523B2, “Imidazopyrazines and pyrazolopyrimidines and their use as AMPA receptor modulators” (Janssen Pharmaceutica NV, priority 2015, dated 2019).

Target: GluA1o-γ8 (GRIA1o-CACNG8 fusion construct; TARP γ8 dependent AMPA receptor) (Homo sapiens (Human), UniProt P42261+Q8WXS5)
Test: Calcium flux assay (FLIPR), inhibition of glutamate response of GluA1o-γ8 channel
Type: cell-based
Conditions: HEK293 cells stably expressing GRIA1o-CACNG8 fusion; 15 μM glutamate; pIC50 = negative log of IC50 in molar; read-out: GluR1-γ8 (pIC50) (converted)
Summary of the method: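 Potency is the midpoint of a four-parameter logistic fit to control-normalized FLIPR calcium responses elicited by 15 μM glutamate. Stable HEK293 cells carried a fused GluA1o-γ8 construct and were preincubated with compound and calcium dye in pH 7.4 HEPES buffer.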

GluA1o-γ8 (GRIA1o-CACNG8 fusion construct; TARP γ8 dependent AMPA receptor), sequence (P42261 other isoform, or with tags, fused parts or gaps): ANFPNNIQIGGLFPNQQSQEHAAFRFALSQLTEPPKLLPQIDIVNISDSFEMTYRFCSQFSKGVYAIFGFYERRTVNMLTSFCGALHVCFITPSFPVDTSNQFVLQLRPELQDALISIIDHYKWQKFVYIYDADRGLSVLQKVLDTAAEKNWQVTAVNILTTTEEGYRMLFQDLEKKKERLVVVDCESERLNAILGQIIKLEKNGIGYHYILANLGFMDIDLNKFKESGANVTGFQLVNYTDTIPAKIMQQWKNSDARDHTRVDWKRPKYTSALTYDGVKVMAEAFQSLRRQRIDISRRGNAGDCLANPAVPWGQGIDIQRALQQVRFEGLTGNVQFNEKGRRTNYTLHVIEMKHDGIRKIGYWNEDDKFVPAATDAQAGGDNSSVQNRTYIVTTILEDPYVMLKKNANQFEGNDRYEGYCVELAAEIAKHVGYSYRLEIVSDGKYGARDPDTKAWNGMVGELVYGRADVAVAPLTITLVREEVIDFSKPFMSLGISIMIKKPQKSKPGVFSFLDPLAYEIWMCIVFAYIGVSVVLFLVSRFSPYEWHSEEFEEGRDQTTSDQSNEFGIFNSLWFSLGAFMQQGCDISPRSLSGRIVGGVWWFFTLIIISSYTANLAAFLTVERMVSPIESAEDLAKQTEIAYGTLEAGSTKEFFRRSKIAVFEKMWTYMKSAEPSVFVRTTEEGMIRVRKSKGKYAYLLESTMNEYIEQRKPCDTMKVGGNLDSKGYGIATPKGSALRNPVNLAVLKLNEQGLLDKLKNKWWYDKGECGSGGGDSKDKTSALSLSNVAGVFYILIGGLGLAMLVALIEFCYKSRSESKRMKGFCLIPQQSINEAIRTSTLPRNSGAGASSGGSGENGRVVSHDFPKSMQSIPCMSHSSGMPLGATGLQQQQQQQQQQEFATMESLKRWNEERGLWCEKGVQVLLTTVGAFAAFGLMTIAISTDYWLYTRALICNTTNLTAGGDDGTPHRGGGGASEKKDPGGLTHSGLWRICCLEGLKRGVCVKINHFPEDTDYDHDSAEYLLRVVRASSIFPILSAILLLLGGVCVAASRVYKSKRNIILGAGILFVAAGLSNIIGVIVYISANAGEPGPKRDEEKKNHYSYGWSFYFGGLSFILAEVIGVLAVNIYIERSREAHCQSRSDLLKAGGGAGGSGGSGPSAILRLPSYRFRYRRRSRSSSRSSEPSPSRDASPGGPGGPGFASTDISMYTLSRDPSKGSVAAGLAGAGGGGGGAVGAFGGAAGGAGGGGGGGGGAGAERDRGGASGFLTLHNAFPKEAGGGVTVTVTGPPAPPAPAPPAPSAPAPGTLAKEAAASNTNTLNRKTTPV

SMILES | IC50
Oc1ccc(-c2c(-c3ccc(F)cc3)nc3c(N4CCNCC4)nccn23)cc1 [Example 5, 4-[2-(4-Fluorophenyl)-8-piperazin-1-yl-imidazo[1,2-a]pyrazin-3-yl]phenol] | 1260 nM
CC(=O)NC1CCN(c2nccn3c(-c4ccc(O)cc4)c(-c4ccc(Cl)cc4)nc23)CC1 [Example 93, N-[1-[2-(4-Chlorophenyl)-3-(4-hydroxyphenyl)imidazo[1,2-a]pyrazin-8-yl]-4-piperidyl]acetamide] | 31.6 nM
O=C1Cc2cc(-c3c(-c4ccc(F)cc4)nc4c(N5CC[C@H](O)[C@H](F)C5)nccn34)ccc2N1 (relative stereo) [Example 73, (cis)-5-[8-(3-Fluoro-4-hydroxy-1-piperidyl)-2-(4-fluorophenyl)imidazo[1,2-a]pyrazin-3-yl]indolin-2-one] | 0.316 nM
Oc1ccc(-c2c(-c3ccc(F)cc3)nc3c(N4CCCC(F)(F)C4)nccn23)cc1 [Example 29, 4-[8-(3,3-Difluoro-1-piperidyl)-2-(4-fluorophenyl)imidazo[1,2-a]pyrazin-3-yl]phenol] | 31.6 nM
C[C@@H]1COCCN1c1nccn2c(-c3ccc4c(c3)CC(=O)N4)c(-c3ccc(F)cc3)nc12 [Example 44, 5-[2-(4-Fluorophenyl)-8-[(3R)-3-methylmorpholin-4-yl]imidazo[1,2-a]pyrazin-3-yl]indolin-2-one] | 7.94 nM
Nc1nccn2c(-c3ccc4[nH]c(=O)[nH]c4c3)c(-c3ccc(F)cc3)nc12 [Example 87, 5-[8-Amino-2-(4-fluorophenyl)imidazo[1,2-a]pyrazin-3-yl]-1,3-dihydrobenzimidazol-2-one] | 398 nM
Cc1cc(O)ccc1-c1c(-c2ccc(F)cc2)nc2c(N3CCOCC3)nccn12 [Example 2, 4-[2-(4-Fluorophenyl)-8-morpholino-imidazo[1,2-a]pyrazin-3-yl]-3-methyl-phenol] | 31.6 nM
O=C1Cc2cc(-c3c(-c4ccc(F)cc4)nc4c(N5CCC5)nccn34)ccc2N1 [Example 58, 5-[8-(Azetidin-1-yl)-2-(4-fluorophenyl)imidazo[1,2-a]pyrazin-3-yl]indolin-2-one] | 1.58 nM
O=C1Cc2cc(-c3c(C4CCC4)nc4c(N5CCOCC5)nccn34)ccc2N1 [Example 90, 5-(2-Cyclobutyl-8-morpholino-imidazo[1,2-a]pyrazin-3-yl)indolin-2-one] | 200 nM
CC(=O)N1CCN(c2nccn3c(-c4ccc5[nH]c(=O)[nH]c5c4)c(Cc4ccccc4)nc23)CC1 [Example 19, 5-[8-(4-Acetylpiperazin-1-yl)-2-benzyl-imidazo[1,2-a]pyrazin-3-yl]-1,3-dihydrobenzimidazol-2-one] | 3.98 nM
c1ccc(Cc2nc3c(N4CCOCC4)nccn3c2-c2ccc3[nH]ncc3c2)cc1 [Example 21, 4-[2-Benzyl-3-(1H-indazol-5-yl)imidazo[1,2-a]pyrazin-8-yl]morpholine] | 1 nM
CCN(CC)c1nccn2c(-c3ccc4c(c3)CC(=O)N4)c(-c3ccc(F)cc3)nc12 [Example 51, 5-[8-(Diethylamino)-2-(4-fluorophenyl)imidazo[1,2-a]pyrazin-3-yl]indolin-2-one] | 3.98 nM
CC(C)(C)OC(=O)N1CCN(c2nccn3c(-c4ccc(O)cc4)c(-c4ccc(F)cc4)nc23)CC1 [Example 3, tert-Butyl 4-[2-(4-fluorophenyl)-3-(4-hydroxyphenyl)imidazo[1,2-a]pyrazin-8-yl]piperazine-1-carboxylate] | 631 nM
O=C1Cc2cc(-c3c(C4CC4)nc4c(N5CCOCC5)nccn34)ccc2N1 [Example 91, 5-(2-Cyclopropyl-8-morpholino-imidazo[1,2-a]pyrazin-3-yl)indolin-2-one] | 501 nM
O=C1Cc2cc(-c3c(-c4ccc(F)cc4)nc4c(N5CC(O)(C(F)(F)F)C5)nccn34)ccc2N1 [Example 69, 5-[2-(4-Fluorophenyl)-8-[3-hydroxy-3-(trifluoromethyl)azetidin-1-yl]imidazo[1,2-a]pyrazin-3-yl]indolin-2-one] | 1 nM
Oc1ccc(-c2c(-c3ccc(F)cc3)nc3c(N4CCCCC4)nccn23)cc1 [Example 9, 4-[2-(4-Fluorophenyl)-8-(1-piperidyl)imidazo[1,2-a]pyrazin-3-yl]phenol] | 200 nM

Results, then the compound that gave them:

IC50 | SMILES
7.94 nM | O=C(c1ccccc1)c1nc2c(N3CCOCC3)nccn2c1-c1ccc2c(c1)CS(=O)(=O)N2 [Example 159, [3-(2,2-Dioxo-1,3-dihydro-2,1-benzothiazol-5-yl)-8-morpholino-imidazo[1,2-a]pyrazin-2-yl]-phenyl-methanone]
3.16 nM | O=c1[nH]c2ccc(-c3c(-c4ccc(F)cc4)nc4c(N5CCOCC5)nccn34)cc2o1 [Example 116, 6-(2-(4-Fluorophenyl)-8-morpholinoimidazo[1,2-a]pyrazin-3-yl)benzo[d]oxazol-2(3H)-one]
100 nM | O=C1Cc2cc(-c3c(-c4ccccc4)nc4cnc(C(F)(F)F)cn34)ccc2N1 [Example 218, 5-[2-Phenyl-6-(trifluoromethyl)imidazo[1,2-a]pyrazin-3-yl]indolin-2-one]
794 nM | O=C1Cc2cc(-c3c(C4CCC4)nn4cnc(C(F)(F)F)cc34)ccc2N1 [Example 226, 5-[2-Cyclobutyl-5-(trifluoromethyl)pyrazolo[1,5-c]pyrimidin-3-yl]indolin-2-one]
3.98 nM | CN(C)c1nccn2c(-c3ccc4c(c3)CC(=O)N4)c(C(=O)c3ccccc3)nc12 [Example 152, 5-[2-Benzoyl-8-(dimethylamino)imidazo[1,2-a]pyrazin-3-yl]indolin-2-one]
6310 nM | O=C1Cc2cc(-c3c(C4CC4)nc4cnc(C(F)(F)F)cn34)ccc2N1 [Example 219, 5-[2-Cyclopropyl-6-(trifluoromethyl)imidazo[1,2-a]pyrazin-3-yl]indolin-2-one]
3.16 nM | O=S1(=O)Cc2cc(-c3c(-c4ccc(F)cc4)nc4c(N5CCC(O)CC5)nccn34)ccc2N1 [Example 119, 1-[3-(2,2-Dioxo-1,3-dihydro-2,1-benzothiazol-5-yl)-2-(4-fluorophenyl)imidazo[1,2-a]pyrazin-8-yl]piperidin-4-ol]
3.98 nM | O=S1(=O)Cc2cc(-c3c(-c4ccc(F)cc4)nc4c(N5CCOCC5)nccn34)ccc2N1 [Example 117, 5-[2-(4-Fluorophenyl)-8-morpholino-imidazo[1,2-a]pyrazin-3-yl]-1,3-dihydro-2,1-benzothiazole 2,2-dioxide]
3.16 nM | O=C1Cc2cc(-c3c(-c4ccc(F)cc4)nn4c(N5CC(F)(F)C5)nccc34)ccc2N1 [Example 176, 5-[7-(3,3-Difluoroazetidin-1-yl)-2-(4-fluorophenyl)pyrazolo[1,5-c]pyrimidin-3-yl]indolin-2-one]
1.26 nM | O=C1CN(c2nccc3c(-c4ccc5c(c4)CC(=O)N5)c(-c4ccc(F)cc4)nn23)CCN1 [Example 168, 5-[2-(4-Fluorophenyl)-7-(3-oxopiperazin-1-yl)pyrazolo[1,5-c]pyrimidin-3-yl]indolin-2-one]
5.01 nM | CC(=O)N1CCN(c2nccn3c(-c4ccc5c(c4)CC(=O)N5)c(C(=O)c4ccccc4)nc23)CC1 [Example 158, 5-[8-(4-Acetylpiperazin-1-yl)-2-benzoyl-imidazo[1,2-a]pyrazin-3-yl]indolin-2-one]
39.8 nM | CC(=O)N[C@@H]1CCN(c2nccn3c(-c4ccc5c(c4)CC(=O)N5)c(-c4ccc(F)cc4)nc23)C1 [Example 250, N-[(3R)-1-[2-(4-Fluorophenyl)-3-(2-oxoindolin-5-yl)imidazo[1,2-a]pyrazin-8-yl]pyrrolidin-3-yl]acetamide]
631 nM | CCCNC(=O)c1nc2c(N3CCOCC3)nccn2c1-c1ccc(O)cc1 [Example 148, 3-(4-Hydroxyphenyl)-8-morpholino-N-propyl-imidazo[1,2-a]pyrazine-2-carboxamide]
3.98 nM | O=c1[nH]c2ccc(-c3c(-c4ccc(F)cc4)nc4c(N5CCOCC5)ncc(F)n34)cc2[nH]1 [Example 162, 5-[5-Fluoro-2-(4-fluorophenyl)-8-morpholino-imidazo[1,2-a]pyrazin-3-yl]-1,3-dihydrobenzimidazol-2-one]
20 nM | Oc1ccc(-c2c(Cc3cccc(F)c3)nc3c(N4CCOCC4)nccn23)cc1 [Example 96, 4-[2-[(3-Fluorophenyl)methyl]-8-morpholino-imidazo[1,2-a]pyrazin-3-yl]phenol]
158 nM | CC(C)c1nn2c(N3CCOCC3)ncc(F)c2c1-c1ccc2[nH]ncc2c1 [Example 236, 4-[4-Fluoro-3-(1H-indazol-5-yl)-2-isopropyl-pyrazolo[1,5-c]pyrimidin-7-yl]morpholine]
3.98 nM | N#Cc1ccc(-c2nc3c(N4CCOCC4)nccn3c2-c2ccc3[nH]ncc3c2)cc1 [Example 97, 4-[3-(1H-Indazol-5-yl)-8-morpholino-imidazo[1,2-a]pyrazin-2-yl]benzonitrile]
0.794 nM | CN(C)c1nccn2c(-c3ccc4c(c3)CC(=O)N4)c(-c3ccc(F)cc3)nc12 [Example 141, 5-[8-(Dimethylamino)-2-(4-fluorophenyl)imidazo[1,2-a]pyrazin-3-yl]indolin-2-one]
0.316 nM | CC(=O)N1CCN(c2ncc(Br)n3c(-c4ccc5c(c4)CC(=O)N5)c(Cc4ccccc4)nc23)CC1 [Example 113, 5-(8-(4-Acetylpiperazin-1-yl)-2-benzyl-5-bromoimidazo[1,2-a]pyrazin-3-yl)indolin-2-one]
3.16 nM | CC(=O)N[C@@H]1CCN(c2nccn3c(-c4ccc5c(c4)CC(=O)N5)c(-c4ccc(F)cc4)nc23)C1 (single isomer, unassigned) [Example 150]
501 nM | O=C(Nc1ccncc1)c1nc2c(N3CCOCC3)nccn2c1-c1ccc2[nH]c(=O)[nH]c2c1 [Example 147, 8-Morpholino-3-(2-oxo-1,3-dihydrobenzimidazol-5-yl)-N-(4-pyridyl)imidazo[1,2-a]pyrazine-2-carboxamide]
0.158 nM | COC1CCN(c2nccc3c(-c4ccc5c(c4)CC(=O)N5)c(-c4ccccc4)nn23)CC1 [Example 189, 5-[7-(4-Methoxy-1-piperidyl)-2-phenyl-pyrazolo[1,5-c]pyrimidin-3-yl]indolin-2-one]
